Measured values reported in patent US9925176B2, “Sodium channel blocker delivery system with scleral lens” (Boston Foundation for Sight, priority 2009, dated 2018).

Legend:
corneas = test: Ocular safety examination (fluorescein staining, slit lamp, confocal microscopy); assay type: in vivo, human
Protocol: (§1) They wore the BOS-P containing 0.001% bupivacaine in their left eye, and the BOS-P containing saline in their right eye unmasked to the patient and doctor, for about 8 hours. […] Corneal sensation in the treated eye was normal.
The patient returned the following day 2 hours after inserting the scleral lenses containing 0.015% ropivacaine.
A patient suffered from severe corneal neuropathic pain for many years, greatly limiting the patient's quality of life. This disease was refractory to previous treatments. Lacosamide was placed in the fluid reservoir of the device where it remained in contact with the cornea while it was worn (approximately 10 hours/day).

corneal neuropathic pain [1] = test: Treatment of corneal pain with drug solution in the fluid reservoir of a scleral lens (BOS-P); assay type: in vivo, human
Protocol: (§2) A patient with well-established primary Sjögren's syndrome and severe dry eyes was treated for intense, constant corneal pain using the anesthetic delivery system disclosed herein. Specifically, the patient was treated with bupivacaine and BOS-P devices. The concentration of non-preserved bupivacaine was rapidly titrated using frequent (every 2-5 minutes) drops in the more symptomatic left eye (open label) measuring corneal sensitivity with a Cochet-Bonnet aesthesiometer (with adequate recovery times) until reaching the concentration that avoided any depression of corneal sensitivity. The sub-anesthetic concentration in this patient was determined to be 0.001%. Both BOS-P devices were filled with 0.001% bupivacaine and inserted into the patient's eyes. The patient then left.
The patient was given a vial of 0.01% bupivacaine to dilute 1:10 (e.g., add one drop of 0.01% bupivacaine to nine drops of saline) to fill the reservoir of the left lens prior to inserting it the next morning.
as §1
The fluid compartments of both BOS-P lenses were filled with non-preserved bupivacaine at a concentration of 0.002%, and the BOS-P lenses with bupivacaine were worn at least 12 hours/day. […] Eye symptoms were also resolved after the bupivacaine was diluted to 0.0014%.
A patient suffered from Stevens-Johnson syndrome for about 25 years, complicated by scarring of the lids and corneas of both eyes. The patient was fitted with scleral lens with marked mitigation of eye pain for 2 years following which the patient experienced increasingly disabling eye pain and photosensitivity that was refractory to all available treatments and required high daily doses of opioids to control. Three drops of ropivacaine 0.04% were mixed with 5 drops of saline in the reservoirs of both of the patient's scleral lenses, yielding a solution of 0.015% ropivacaine.
The patient returned the following day 2 hours after inserting the scleral lenses containing 0.015% ropivacaine. […]
A patient underwent a bone marrow stem cell transplant for leukemia and subsequently developed severe dry eyes secondary to chronic graft versus host disease. They were fitted with a scleral lens that eliminated the severe burning pain in their right eye but continued to experienced knife-like and severe aching pain in their left eye and disabling photosensitivity while wearing the scleral lens. This persisted for 15 months. All eye and co-morbid pain symptoms disappeared when the lens was worn with its fluid reservoir filled with sterile, non-preserved lacosamide 0.05%.

corneal sensitivity = test: Corneal sensitivity by Cochet-Bonnet aesthesiometry; assay type: in vivo, human
From the text: The sub-hypoesthetic dose for a sodium channel blocker or a sodium channel modulator may vary between patients. […] The sub-hypoesthetic dose of a sodium channel blocker or a sodium channel modulator can be determined for an individual patient by selecting a higher starting concentration and gradually reducing the concentration via titration until reaching a sub-hypoesthetic dose as determined by a contact and non-contact esthesiometer. A non-limiting example of a method of determining corneal sensitivity is Cochet-Bonnet aesthesiometry.
As used herein, the phrases “sub-anesthetic dose” and “sub-anesthetic concentration” refer to a dose of a sodium channel blocker or a sodium channel modulator or a sodium channel modulator that is lower than the anesthetic dose. “Sub-anesthetic dose” and “sub-anesthetic concentration” may be used interchangeably. The sub-anesthetic dose of a sodium channel blocker or a sodium channel modulator may vary between patients. The sub-anesthetic dose of a sodium channel blocker or a sodium channel modulator can be determined for an individual patient by selecting a higher starting concentration and gradually reducing the concentration via titration until reaching a sub-anesthetic dose as determined by a contact and non-contact esthesiometer. A non-limiting example of a starting concentration of a sodium channel blocker or a sodium channel modulator is about 0.02%. In some embodiments, the concentration of the sodium channel blocker or a sodium channel modulator may be titrated down to a concentration that avoids any depression of corneal sensitivity. A non-limiting example of a method of determining corneal sensitivity is Cochet-Bonnet aesthesiometry.
as §2, with “Both BOS-P devices were filled with 0.001% bupivacaine and inserted into the patient's eyes.” left out

corneal neuropathic pain [2] = test: Lacosamide eye drops without scleral lens for corneal neuropathic pain; assay type: in vivo, human; conditions: Example 5, eye drops with 0.5% lacosamide
Protocol: Eye drops containing 0.5% lacosamide were administered to the eyes of two patients and to the an eye of the inventor. […] Therefore, it is believed that lacosamide may be used in eye drops at a concentration of up to 5% to treat corneal neuropathic pain without depressing corneal sensation.

cornea = conditions: proparacaine 0.05%, after photorefractive keratectomy, Shahinian et al.; cited from earlier work
[3] = Example 3, ropivacaine in scleral lenses, continued use

With `CCCN1CCCC[C@H]1C(=O)Nc1c(C)cccc1C` [ropivacaine] the “adverse effects from the treatment” value (corneas; in vivo) was “no adverse effects”, the “treatment-related complications at subsequent examinations” value (corneas; in vivo) was “without adverse treatment-related complications” and the “eye pain and photophobia, lenses worn until midnight” value (corneal neuropathic pain [1]; Example 3, 0.015% ropivacaine, first day) was “total resolution”. For the same molecule, the “eye pain and photosensitivity following application” value (corneal neuropathic pain [1]; Example 3, Stevens-Johnson syndrome, 0.015% ropivacaine in both scleral lenses) was “rapid mitigation”, the “symptoms at the time of examination” value (corneal neuropathic pain [1]; Example 3, following day, 2 hours after inserting lenses with 0.015% ropivacaine) was “free of symptoms” and the “eye pain and photophobia at subsequent examinations” value (corneal neuropathic pain [1]; [3]) was “significant mitigation”. The corneal sensitivity (corneal sensitivity; Example 3, 0.015% ropivacaine, following day) was “normal” and the “corneal sensitivities at subsequent examinations” value (corneal sensitivity; [3]) was “normal”.
For `CCCCN1CCCCC1C(=O)Nc1c(C)cccc1C` (stereo not shown) [bupivacaine], the fluorescein staining (corneas; in vivo) was “no significant fluorescein staining”, the “eye comfort reported by patient” value (corneal neuropathic pain [1]; Example 1, both BOS-P filled with 0.001% bupivacaine, next day) was “both eyes felt more comfortable than they had been in 3 months” and the “pain reported at day's end” value (corneal neuropathic pain [1]; Example 1, second day, left lens reservoir filled with non-preserved bupivacaine) was “virtual absence of pain in either eye”. For the same molecule, the “pain after exposure to glass cleaner or white board marker” value (corneal neuropathic pain [1]; Example 1, second day, triggers that ordinarily cause severe pain) was “little or no pain”, the “pain reported after about 8 hours of wear” value (corneal neuropathic pain [1]; Example 1, third day, BOS-P with 0.001% bupivacaine in left eye, saline in right eye) was “virtually no pain in either eye” and the “pain with the Visual Analog Scale” value (corneal neuropathic pain [1]; Example 1, third day, on arrival) was “virtually no pain in either eye”. The eye symptoms (corneal neuropathic pain [1]; Example 2, bupivacaine diluted to 0.0014%) was “resolved”, the “eye symptoms (photosensitivity, burning pain, inability to read)” value (corneal neuropathic pain [1]; Example 2, post cosmetic lid surgery, 0.002% bupivacaine in both BOS-P, at least 12 hours/day, several weeks) was “resolved” and the “corneal sensitivity during wear” value (corneal sensitivity; Example 1, 0.001% bupivacaine in left lens, verified periodically during the day) was “absence of depressed corneal sensitivity”. For the same molecule, the “corneal sensation in the treated eye” value (corneal sensitivity; Example 1, after about 8 hours of BOS-P with 0.001% bupivacaine) was “normal” and the corneal sensation (corneal sensitivity; Example 2, 0.002% bupivacaine in BOS-P, several weeks) was “remained intact”.
In the case of `COC[C@@H](NC(C)=O)C(=O)NCc1ccccc1` [lacosamide], the “detrimental effects to the corneas” value (corneas; Example 4, 0.003% lacosamide in BOS-P, slit lamp examination and confocal microscopy) is reported as “without any detrimental effects”, the “duration of effect, one patient” value (corneal neuropathic pain [2]) is reported as “over four” and the “duration of effect, other patient” value (corneal neuropathic pain [2]) is reported as “over two”. For the same molecule, the “onset of pain resolution” value (corneal neuropathic pain [2]) was “almost immediately after administration”, the corneal neuropathic pain (corneal neuropathic pain [2]; both patients) was “complete resolution” and the “eye and co-morbid pain symptoms” value (corneal neuropathic pain [1]; Example 6, chronic graft versus host disease dry eye, scleral lens reservoir filled with lacosamide 0.05%) was “disappeared”. For the same molecule, the corneal sensation (corneal sensitivity; Example 5, eye drops with 0.5% lacosamide, two patients and the inventor) was “did not depress corneal sensation”.
In the case of `CCCOc1ccc(C(=O)OCCN(CC)CC)cc1N` [Proparacaine], the anesthetic effect (cornea) is given as “non-anesthetic” and the toxicity and safety (cornea) is given as “non-toxic, and safe for at least one week of use”.
